Data published in patent US20220096650A1 (Glaxosmithkline Intellectual Property Development Limited, priority 2019, published 2022).

T1: cynomolgus PD-1 (cynomolgus)
T1 chain: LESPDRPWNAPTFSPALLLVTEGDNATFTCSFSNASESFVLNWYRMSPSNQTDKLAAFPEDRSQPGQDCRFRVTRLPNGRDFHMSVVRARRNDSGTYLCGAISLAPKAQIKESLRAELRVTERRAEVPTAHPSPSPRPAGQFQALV

B1: Pembrolizumab (antibody, human IgG4 S228P, kappa, V domains shown)
VH: QVQLVQSGVEVKKPGASVKVSCKASGYTFTNYYMYWVRQAPGQGLEWMGGINPSNGGTNFNEKFKNRVTLTTDSSTTTAYMELKSLQFDDTAVYYCARRDYRFDMGFDYWGQGTTVTVSS
VL: EIVLTQSPATLSLSPGERATLSCRASKGVSTSGYSYLHWYQQKPGQAPRLLIYLASYLESGVPARFSGSGSGTDFTLTISSLEPEDFAVYYCQHSRDLPLTFGGGTKVEIKR
notes: also called MK3475

Experiments:
[1] = tested on: cells expressing human or cynomolgus PD-1; conditions: human versus cynomolgus PD-1; cited from earlier work
cynomolgus PD-1 = molecular target: T1, cynomolgus PD-1; experiment: kinetic analysis (bio-light interferometry)

Molecule | blocking of binding of human PD-1 ligands to cells expressing human or cynomolgus PD-1 [1] | Kd (cynomolgus PD-1)
pembrolizumab: monoclonal IgG4 kappa antibody that binds the PD-1 receptor and blocks its interaction with PD-L1 and PD-L2 | comparable potency | –
B1 | – | 0.118 nM
